Key:
TrkA = biological target: T1, TrkA (Homo sapiens, UniProt P04629); assay: TrkA tyrosine kinase assay (33P phosphorylation of polyGluTyr by recombinant enzyme); type: biochemical; conditions: recombinant kinase domain of human TrkA, PGT substrate, 30 uM ATP
T1 construct: The kinase domain of the human TrkA receptor is expressed in Sf9 insect cells as a histidine (His)-fusion protein; His; made in house; host or cells: Sf9 insect cells (baculovirus)
Excerpt: The ability of compounds of the present invention to inhibit tyrosine kinase activity of TrkA may be measured using a recombinant enzyme in an assay that measures the ability of compounds to inhibit the phosphorylation of the exogenous substrate, polyGluTyr (PGT, Sigma™, 4:1). The kinase domain of the human TrkA receptor is expressed in Sf9 insect cells as a histidine (His)-fusion protein using a baculovirus expression system. The protein is purified from the lysates of these cells using an Ni-NTA affinity column. After the recombinant enzyme is purified, it is activated by incubation with cold ATP. The enzyme assay is performed in a 96-well plate. Test compounds are first dissolved in dimethylsulfoxide (DMSO) and then serially-diluted in a 96-well plate. The serially-diluted compounds are transferred to the 96-well assay plate so that the final concentration of DMSO in the enzyme assay is 1.64%. All assay components are diluted in phosphorylation buffer (20 mm MOPS, 10 mM MgCl2, 1 mM EDTA, 0.015% Brij-35, 0.1 mg/ml BSA, 0.0025% Beta-Mercaptoethanol). The recombinant enzyme is added to the assay plate containing test compound and the reaction is initiated with a substrate solution containing a final concentration of 0.1 mg/ml PGT, 30 uM ATP, and 0.008 mCi/ml ^33P-gammaATP (3000 Ci/mmol)(Perkin Elmer™) After a 1 hour incubation at 30° C., the reaction is terminated with 10% TCA and incubated at 4° C. for 1 hour. The reaction is filtered onto a Unifilter® GF/C™ filter plate (Perkin Elmer™) that has been presoaked with 0.1M NaPyrophosphate. Microscint-20 (Perkin Elmer™) is then added to the dried filter plate and the captured ^33P-phosphorylated PGT is quantitated on a microscintillation plate counter (TopCount•NXT™ (Perkin Elmer™)). Inhibition of the kinase enzymatic activity by the test compound is detected by a reduction in scintillation, and the concentration of compound that is required to inhibit the signal by 50% is reported as the IC50 value for the test compound.

TrkB = biological target: T2, TrkB (Homo sapiens, UniProt Q16620); assay: TrkB tyrosine kinase assay (33P phosphorylation of polyGluTyr by recombinant enzyme); type: biochemical; conditions: recombinant kinase domain of human TrkB (amino acids 526-838), PGT substrate, 30 uM ATP
T2 construct: The kinase domain of the human TrkB receptor (amino acids 526-838); His; purchased Invitrogen; host or cells: insect cells
T2 sequence (Q16620 510-822): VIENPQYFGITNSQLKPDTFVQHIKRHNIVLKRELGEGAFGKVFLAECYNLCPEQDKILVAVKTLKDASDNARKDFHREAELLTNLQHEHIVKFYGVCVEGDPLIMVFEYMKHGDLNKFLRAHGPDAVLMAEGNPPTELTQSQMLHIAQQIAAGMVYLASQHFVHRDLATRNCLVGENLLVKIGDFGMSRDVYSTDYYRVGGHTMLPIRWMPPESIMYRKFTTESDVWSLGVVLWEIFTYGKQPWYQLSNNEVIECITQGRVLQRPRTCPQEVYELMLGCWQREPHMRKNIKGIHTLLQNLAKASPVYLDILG
Experimental: The ability of compounds of the present invention to inhibit tyrosine kinase activity of TrkB may be measured using a recombinant enzyme in an assay that measures the ability of compounds to inhibit the phosphorylation of the exogenous substrate, polyGluTyr (PGT, Sigma™, 4:1). The kinase domain of the human TrkB receptor (amino acids 526-838) is expressed in insect cells as a histidine (His)-fusion protein and is commercially available from Invitrogen™. The enzyme assay is performed in a 96-well plate. Test compounds are first dissolved in dimethylsulfoxide (DMSO) and then serially-diluted in a 96-well plate. The serially-diluted compounds are transferred to the 96-well assay plate so that the final concentration of DMSO in the enzyme assay is 1.64%. All assay components are diluted in phosphorylation buffer (20 mm MOPS, 10 mM MgCl2, 1 mM EDTA, 0.015% Brij-35, 0.1 mg/ml BSA, 0.0025% Beta-Mercaptoethanol). The recombinant enzyme is added to the assay plate containing test compound and the reaction is initiated with a substrate solution containing a final concentration of 0.1 mg/ml PGT, 30 uM ATP, and 0.008 mCi/ml ^33P-gammaATP (3000 Ci/mmol) (Perkin Elmer™). After a 1 hour incubation at 30° C., the reaction is terminated with 10% TCA and incubated at 4° C. for 1 hour. The reaction is filtered onto a Unifilter® GF/C™ filter plate (Perkin Elmer™) that has been presoaked with 0.1M NaPyrophosphate. Microscint-20(Perkin Elmer™) is then added to the dried filter plate and the captured ^33P-phosphorylated PGT is quantitated on a microscintillation plate counter (TopCount•NXT™ (Perkin Elmer™)). Inhibition of the kinase enzymatic activity by the test compound is detected by a reduction in scintillation, and the concentration of compound that is required to inhibit the signal by 50% is reported as the IC50 value for the test compound.

T1 sequence (P04629 510-781 limits assumed): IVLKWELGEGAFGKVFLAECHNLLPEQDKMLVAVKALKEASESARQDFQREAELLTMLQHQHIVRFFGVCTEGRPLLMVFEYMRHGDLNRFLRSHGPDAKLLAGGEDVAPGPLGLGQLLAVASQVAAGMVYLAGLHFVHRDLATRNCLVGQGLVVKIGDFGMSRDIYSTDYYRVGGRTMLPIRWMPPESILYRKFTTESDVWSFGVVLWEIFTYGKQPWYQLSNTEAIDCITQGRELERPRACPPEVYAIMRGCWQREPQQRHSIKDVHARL

Row | SMILES | IC50 (TrkA) [µM] | IC50 (TrkB) [µM]
1 | C[C@H](Nc1nc(Nc2cc(C3CC3)n[nH]2)c2cccn2n1)c1ccc(F)cc1 [Compound 2, N^4-(3-cyclopropyl-1H-pyrazol-5-yl)-N^2-((1S)-1-(4-fluorophenyl)ethyl)pyrrolo[2,1-f][1,2,4]triazine-2,4-diamine] | 0.0001 | 0.0003
2 | Cc1cc(Nc2nc(NC3CCCCC3)nn3cccc23)[nH]n1 [Compound 9, N^2-cyclohexyl-N^4-(5-methyl-1H-pyrazol-3-yl)pyrrolo[2,1-f] [1,2,4]triazine-2,4-diamine] | 0.074 | 0.225
3 | NC1CCCC(Nc2nc(Nc3cc(C4CC4)n[nH]3)c3cccn3n2)C1 (centres unmarked) [Compound 12, N^2-(3-aminocyclohexyl)-N^4-(3-cyclopropyl-1H-pyrazol-5-yl) pyrrolo[2,1-f][1,2,4]triazine-2,4-diamine] | 0.006 | 0.035
4 | C[C@H](Nc1nc(Nc2cc(-c3ccccc3)n[nH]2)c2cccn2n1)c1ccc(F)cc1 [Compound 28, N^2-((1S)-1-(4-fluorophenyl)ethyl)-N^4-(3-phenyl-1H-pyrazol-5-yl) pyrrolo[2,1-f][1,2,4]triazine-2,4-diamine] | 0.0007 | 0.0007
5 | O[C@H]1CC[C@H](Nc2nc(Nc3cc(C4CC4)n[nH]3)c3cccn3n2)CC1 [Compound 38, trans-4-((4-((3-cyclopropyl-1H-pyrazol-5-yl)amino)pyrrolo[2,1-f] [1,2,4]triazin-2-yl)amino) cyclohexanol] | 0.0005 | 0.0009

More lines, now with the values ahead:

Row | IC50 (TrkA) [µM] | IC50 (TrkB) [µM] | SMILES
6 | 0.003 | 0.004 | CCC(O)CNc1nc(Nc2cc(C3CC3)n[nH]2)c2cccn2n1 (centres unmarked) [Compound 40, 1-((4-((3-cyclopropyl-1H-pyrazol-5-yl)amino)pyrrolo[2,1-f][1,2,4]triazin-2-yl)amino)-2-butanol]
7 | 0.018 | 0.031 | c1cc2c(Nc3cc(C4CC4)n[nH]3)nc(N[C@H]3CCNC3)nn2c1 [Compound 41, N^4-(3-cyclopropyl-1H-pyrazol-5-yl)-N^2-((3S)-3-pyrrolidinyl)pyrrolo [2,1-f][1,2,4]triazine-2,4-diamine]
8 | 0.0003 | 0.0003 | O=C(CNc1nc(Nc2cc(C3CC3)n[nH]2)c2cccn2n1)Nc1nccs1 [Compound 43, 2-((4-((3-cyclopropyl-1H-pyrazol-5-yl)amino)pyrrolo[2,1-f][1,2,4]triazin-2-yl)amino)-N-1,3-thiazol-2-ylacetamide]
9 | 0.001 | 0.002 | O=C(Nc1nccs1)[C@H](Cc1ccccc1)Nc1nc(Nc2cc(C3CC3)[nH]n2)c2cccn2n1 [Compound 44, (2S)-2-((4-((5-cyclopropyl-1H-pyrazol-3-yl)amino)pyrrolo[2,1-f][1,2,4]triazin-2-yl)amino)-3-phenyl-N-1,3-thiazol-2-ylpropanamide]
10 | 0.012 | 0.005 | CC(C)[C@H](CO)NC(=O)[C@H](C)Nc1nc(Nc2cc(C3CC3)n[nH]2)c2cccn2n1 [Compound 49, (2S)-2-((4-((3-cyclopropyl-1H-pyrazol-5-yl)amino)pyrrolo[2,1-f][1,2,4]triazin-2-yl)amino)-N-((1R)-1-(hydroxymethyl)-2-methylpropyl)propanamide]
